Test results: patent publication US20190382358A1, “HETEROCYCLIC COMPOUNDS AS PESTICIDES” (Bayer CropScience Aktiengesellschaft, priority 2016, published 2019)

Assays:
Assay type in all cases: in vivo
Phaedon cochleariae = Phaedon cochleariae spray test; conditions: for mortality at 500 g/ha: Phaedon cochleariae, in Brassica rapa, foliar, 168 h, read-out: mortality in %
Procedure: Phaedon cochleariae—Spray Test
(§1) To produce a suitable preparation of active compound, 1 part by weight of active compound is mixed with the stated amount of solvents and is diluted with water, containing an emulsifier concentration of 1000 ppm, to the desired concentration. Further test concentrations are prepared by dilution with emulsifier containing water.
Chinese cabbage (Brassica pekinensis) leaf disks are sprayed with a preparation of the active ingredient of the desired concentration. Once dry, the leaf disks are infested with mustard beetle larvae (Phaedon cochleariae).
After 7 days mortality in % is determined. 100% means all beetle larvae have been killed and 0% means none of the beetle larvae have been killed.

Tetranychus urticae = Tetranychus urticae spray test OP-resistant; conditions: foliar, 144 h, after 6 days, French bean leaf disks
Procedure: Tetranychus urticae—Spray Test OP-Resistant
as §1
French bean (Phaseolus vulgaris) leaf disks infected with all instars of the two spotted spidermite (Tetranychus urticae), are sprayed with a preparation of the active ingredient of the desired concentration.
After 6 days mortality in % is determined. 100% means all spider mites have been killed and 0% means none of the spider mites have been killed.

Euschistus heros = Euschistus heros spray test (feeding control); conditions: 100 ppm; after 3 days; kidney bean plants, larvae
Procedure: Euschistus heros—Spray Test
(§2) To produce a suitable preparation of active compound, 1 part by weight of active compound is mixed with the stated amount of solvent and is diluted with water to the desired concentration. Further test concentrations are prepared by dilution with water Ammonium salt and/or penetration enhancer (rapeseed oil methyl esters) in a dosage of 1000 ppm are added to the desired concentration if necessary.
Kidney bean plants (Phaseolus vulgaris) are treated by being sprayed with the preparation of the active compound of the desired concentration and are infested with 10 larvae per plant of the brown stink bug (Euschistus heros).
(§3) After 3 days feeding control in % is determined. 100% means there is no feeding damage visible and 0% means the plant damage corresponds to that of the untreated control plants.

Nezara viridula [1] = assay: Nezara viridula spray test (barley plants, mortality); conditions: for mortality at 20 g/ha / mortality at 100 g/ha / mortality at 500 g/ha: Nezara viridula, 96 h, read-out: mortality in %
Procedure: (§4) Nezara viridula—Spray Test
To produce a suitable preparation of active compound, 1 part by weight of active compound is mixed with the stated amount of solvent, and the concentrate is diluted with water, containing an emulsifier concentration of 1000 ppm, to the desired concentration Ammonium salt and/or penetration enhancer in a dosage of 1000 ppm are added to the desired concentration if necessary.
Barley plants (Hordeum vulgare) infested with larvae of the southern green stink bug (Nezara viridula) are sprayed with a test solution containing the desired concentration of the active ingredient.
After 4 days, mortality in % is determined. 100% means all the stink bugs have been killed; 0% means none of the stink bugs have been killed.

Meloidogyne incognita = Meloidogyne incognita test; conditions: 20 ppm; after 14 days; salad seedlings, eggs and larvae
Procedure: Meloidogyne incognita—Test
To produce a suitable preparation of active compound, 1 part by weight of active compound is mixed with the stated amount of solvent, and the concentrate is diluted with water to the desired concentration.
Vessels are filled with sand, a solution of the active ingredient, a suspension containing eggs and larvae of the southern root-knot nematode (Meloidogyne incognita) and salad seeds. The salad seeds germinate and the seedlings grow. Galls develop in the roots.
After 14 days the nematicidal activity is determined on the basis of the percentage of gall formation. 100% means no galls were found and 0% means the number of galls found on the roots of the treated plants was equal to that in untreated control plants.

Nilaparvata lugens = Nilaparvata lugens spray test; conditions: 96 h, after 4 days, rice plants, larvae
Procedure: Nilaparvata lugens—Spray Test
To produce a suitable preparation of active compound, 1 part by weight of active compound is mixed with the stated amount of solvents and is diluted with water, containing an emulsifier concentration of 1000 ppm, to the desired concentration. Further test concentrations are prepared by dilution with emulsifier containing water. Ammonium salt and/or penetration enhancer in a dosage of 1000 ppm are added to the desired concentration if necessary.
Rice plants (Oryza sativa) are treated by being sprayed with the desired concentration of the active compound and are infested with larvae of the brown planthopper (Nilaparvata lugens).
After 4 days mortality in % is determined. 100% means all planthoppers have been killed and 0% means none of the planthoppers have been killed.

Spodoptera frugiperda = Spodoptera frugiperda spray test; conditions: 168 h, after 7 days, maize leaf sections, larvae
Procedure: Spodoptera frugiperda—Spray Test
as §1
Maize (Zea mays) leaf sections are sprayed with a preparation of the active ingredient of the desired concentration. Once dry, the leaf sections are infested with fall armyworm larvae (Spodoptera frugiperda).
After 7 days mortality in % is determined. 100% means all caterpillars have been killed and 0% means none of the caterpillars have been killed.

Diabrotica balteata = Diabrotica balteata spray test; conditions: 160 μg/well; after 7 days; wheat seeds, larvae of banded cucumber beetle
Procedure: Diabrotica balteata-Spray Test
as §1, with “solvent,” for “solvents”, “and the concentrate” for “and”
Soaked wheat seeds (Triticum aestivum) are placed in a multiple well plate filled with agar and some water and are incubated for 1 day to germinate (5 seeds per well). The germinated wheat seeds are sprayed with a test solution containing the desired concentration of the active ingredient. Afterwards each unit is infected with 10-20 larvae of the banded cucumber beetle (Diabrotica balteata).
After 7 days efficacy in % is determined. 100% means all the seedlings have grown up like in the untreated, uninfected control; 0% means none of the seedlings have grown.

Nezara viridula [2] = assay: Nezara viridula spray test (cotton plants, feeding control); conditions: 100 ppm, after 3 days, larvae
Procedure: as §4, §2
Cotton plants (Gossypium hirsutum) are treated by being sprayed with the preparation of the active compound of the desired concentration and are infested with 10 larvae per plant of the green plant bug (Nezara viridula).
as §3

SMILES	mortality at 500 g/ha (Phaedon cochleariae) [%]	mortality at 100 g/ha (Nezara viridula [1]) [%]	mortality at 500 g/ha (Nezara viridula [1]) [%]	nematicidal activity (% reduction of galls vs untreated control) (Meloidogyne incognita) [%]	efficacy in % (Diabrotica balteata) [%]	other results
O=C(Nc1nc(-c2c(F)cc(C(F)(F)F)cc2F)ns1)c1cccnc1C(F)(F)F [Compound I-1-1]	100	–	–	–	–	mortality at 500 g/ha (Tetranychus urticae): 90%
O=C(Nc1nc(-c2c(F)ccc(C(F)(F)F)c2F)ns1)c1cccnc1C(F)(F)F [Compound I-1-2, N-{3-[2,6-difluoro-3-(trifluoromethyl)phenyl]-1,2,4-thiadiazol-5-yl}-2-(trifluoromethyl)nicotinamide]	100	100	100	90	–	feeding control in % (Euschistus heros): 85%; mortality at 20 g/ha (Nezara viridula [1]): 100%; mortality at 500 g/ha (Nilaparvata lugens): ≥ 90%; mortality at 500 g/ha (Spodoptera frugiperda): ≥ 83%; mortality at 500 g/ha (Tetranychus urticae): 90%
O=C(Nc1nc(-c2c(F)ccc(C(F)(F)F)c2F)ns1)c1ccccc1C(F)(F)F [Compound I-1-3, N-{3-[2,6-difluoro-3-(trifluoromethyl)phenyl]-1,2,4-thiadiazol-5-yl}-2-(trifluoromethyl)benzamide]	100	100	100	–	–	–
O=C(Nc1nc(-c2c(F)ccc(Cl)c2F)ns1)c1cccnc1C(F)(F)F [Compound I-1-6, N-[3-(3-chloro-2,6-difluorophenyl)-1,2,4-thiadiazol-5-yl]-2-(trifluoromethyl)nicotinamide]	100	100	100	–	–	mortality at 20 g/ha (Nezara viridula [1]): 100%; mortality at 500 g/ha (Spodoptera frugiperda): ≥ 83%; mortality at 500 g/ha (Tetranychus urticae): 90%
O=C(Nc1nc(-c2cc(F)cc(F)c2F)ns1)c1ccccc1Cl [Compound I-1-21]	–	–	–	–	–	mortality in % (Nezara viridula [1]; 500 g/ha, after 4 days, barley plants, larvae): 80%
O=C(Nc1nc(-c2c(F)ccc(F)c2F)ns1)c1cccnc1C(F)(F)F [Compound I-1-24]	–	–	–	90	100	–
O=C(Nc1nc(-c2c(F)ccc(F)c2F)ns1)c1cccnc1C(F)F [Compound I-1-27]	–	–	–	–	–	feeding control in % (Nezara viridula [2]): 100%
O=C(Nc1nc(-c2c(F)ccc(F)c2F)ns1)c1ccccc1Cl [Compound I-1-30]	–	–	–	90	100	–
O=C(Nc1nc(-c2c(F)c(F)cc(F)c2F)ns1)c1cccnc1C(F)(F)F [Compound I-1-33]	–	–	–	90	100	feeding control in % (Euschistus heros): 100%; feeding control in % (Nezara viridula [2]): 100%
O=C(Nc1nc(-c2c(F)c(F)cc(F)c2F)ns1)c1ccccc1C(F)(F)F [Compound I-1-34]	–	–	–	–	100	–
O=C(Nc1nc(-c2c(F)c(F)cc(F)c2F)ns1)c1nccnc1C(F)(F)F [Compound I-1-35]	–	–	–	90	–	–
O=C(Nc1nc(-c2cc(Cl)cc(F)c2F)ns1)c1c(F)cccc1F [Compound I-1-46]	–	–	–	–	–	mortality in % (Phaedon cochleariae; 500 g/ha, after 7 days, Chinese cabbage leaf disks, larvae): 83%
O=C(Nc1nc(-c2c(F)ccc(Br)c2F)ns1)c1cccnc1C(F)(F)F [Compound I-1-51, N-[3-(3-bromo-2,6-difluorophenyl)-1,2,4-thiadiazol-5-yl]-2-(trifluoromethyl)nicotinamide]	100	100	100	–	100	mortality at 20 g/ha (Nezara viridula [1]): 100%; mortality at 500 g/ha (Spodoptera frugiperda): ≥ 83%; feeding control in % (Nezara viridula [2]): 100%; mortality at 500 g/ha (Tetranychus urticae): 90%
Cc1ccc(F)c(-c2nsc(NC(=O)c3cccnc3C(F)(F)F)n2)c1F [Compound I-1-52, N-[3-(2,6-difluoro-3-methylphenyl)-1,2,4-thiadiazol-5-yl]-2-(trifluoromethyl)nicotinamide]	100	100	100	–	–	–
